Measured values as given in patent publication US20250154169A1, “COMPOUNDS AND METHODS FOR MODULATING SPLICING” (REMIX THERAPEUTICS INC., priority 2021, published 2025).
Like-named read-outs stand apart in the source and are kept apart here.

What was measured:
Assay type in all cases: cell-based, human
[1] = test system: MYB mRNA; experiment: Splicing RT-qPCR assay, MYB canonical (CJ) and alternative (AJ) junction mRNA; conditions: for AC50: read-out: MYB AJ (AC50, increase in alternative junction mRNA)
How it was run: (§1)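 One-step RT-qPCR on cell lysates, CJ and AJ isoforms quantified; housekeeping normalization GAPDH/GUSB (K562) or PPIA (A673). Cells: A673 in DMEM/10% FBS or K562 in IMDM/10% FBS. Compounds 11-pt 3-fold, top 10 uM, 24 h, 37 °C, 5% CO2.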

[2] = test system: Target C mRNA; experiment: Splicing RT-qPCR gene panel, Target C canonical junction (CJ) mRNA; conditions: Tables 4A/4B, read-out: Target C (IC50, decrease in CJ mRNA, gene panel)
Method: (§2) Compounds described herein were used to modulate RNA transcript abundance in cells. The expression of a target mRNA was measured by detecting the formation of an exon-exon junction in the canonical transcript (CJ). A compound mediated exon-inclusion event was detected by observing an increase in formation of a new junction with an alternative exon (AJ). Real-time qPCR assays were used to detect these splicing switches and interrogate the potency of various compounds towards different target genes. A high-throughput real time quantitative PCR (RT-qPCR) assay was developed to measure these two isoforms of the mRNA (CJ and AJ) for exemplary genes, such as HTT, SMN2, and MYB, together with a control housekeeping gene, GAPDH or GUSB or PPIA, used for normalization. Briefly, the A673 or K562 cell line was treated with various compounds described herein (e.g., compounds of Formula (I)). After treatment, the levels of the HTT, MYB, or SMN2 mRNA targets were determined from each sample of cell lysate by cDNA synthesis followed by qPCR.
(§3) The A673 cell line was cultured in DMEM with 10% FBS. Cells were diluted with full growth media and plated in a 96-well plate (15,000 cells in 100 ul media per well). The plate was incubated at 37° C. with 5% CO2 for 24 hours to allow cells to adhere. An 11-point 3-fold serial dilution of the compounds was made in DMSO then diluted in media in an intermediate plate. Compounds were transferred from the intermediate plate to the cell plate with the top dose at a final concentration of 10 uM in the well. Final DMSO concentration was kept at or below 0.25%. The cell plate was returned to the incubator at 37° C. with 5% CO2 for an additional 24 hours.
(§4) The K562 cell line was cultured in IMDM with 10% FBS. For K562, cells were diluted with full growth media and plated in either a 96-well plate (50,000 cells in 50 uL media per well) or a 384-well plate (8,000-40,000 cells in 45 uL media per well). An 11-point 3-fold serial dilution of the compounds were made in DMSO then diluted in media in an intermediate plate. Compound was transferred from the intermediate plate to the cell plate with the top dose at a final concentration of 10 uM in the well. Final DMSO concentration was kept at or below 0.25%. Final volume was 100 uL for 96-well plate and 50 uL for 384-well plate. The cell plate was then placed in an incubator at 37° C. with 5% CO2 for 24 hours.
(§5) The cells were then gently washed with 50 uL-100 uL cold PBS before proceeding to addition of lysis buffer. 30 uL-50 uL of room temperature lysis buffer with DNAse I (and optionally RNAsin) was added to each well. Cells were shaken/mixed thoroughly at room temperature for 5-10 minutes for lysis to take place and then 3 uL-5 uL of room temperature stop solution was added and wells were shaken/mixed again. After 2-5 minutes, the cell lysate plate was transferred to ice for RT-qPCR reaction setup. The lysates could also be frozen at −80° C. for later use.
(§6) In some cases, a direct lysis buffer was used. An appropriate volume of 3× lysis buffer (10 mM Tris, 150 mM NaCl, 1.5%-2.5% Igepal and 0.1-1 U/uL RNAsin, pH 7.4) was directly added to either K562 or A673 cells in media and mixed by pipetting 3 times. The plates were then incubated at room temperature with shaking/rocking for 20-50 minutes to allow for lysis to take place. After this time, the cell lysate plate was transferred to ice to set up for the RT-qPCR reactions. The lysates could also be frozen at −80° C. for later use.
(§7) To set up 10 uL RT-qPCR reactions, cell lysates were transferred to 384-well qPCR plates containing the master mix according to the table below. The plates were sealed, gently vortexed, and spun down before the run. The volumes were adjusted accordingly in some instances where the reaction was carried in 20 μL. The table below summarizes the components of the RT-qPCR reactions:
(§8) The RT-qPCR reaction was performed using a QuantStudio (ThermoFisher) under the following fast cycling conditions. […]

[3] = test system: HTT mRNA; experiment: Splicing RT-qPCR gene panel, HTT canonical junction (CJ) mRNA; conditions: Tables 4A/4B, read-out: HTT (IC50, decrease in CJ mRNA, gene panel)
Method: as §2, §3, §4, §5, §6, §7, §8

[4] = test system: HTT mRNA; experiment: Splicing RT-qPCR assay, HTT canonical (CJ) and alternative (AJ) junction mRNA; conditions: Homo sapiens, A673 or K562 cells, 24 hours compound treatment; for IC50: 24 h, read-out: HTT CJ (IC50, decrease in canonical junction mRNA); for AC50: read-out: HTT AJ (AC50, increase in alternative junction mRNA)
How it was run: as §1

[5] = test system: SMN2 mRNA; experiment: Splicing RT-qPCR gene panel, SMN2 canonical junction (CJ) mRNA; conditions: Tables 4A/4B, read-out: SMN2 (IC50, decrease in CJ mRNA, gene panel)
Method: as §2, §3, §4, §5, §6, §7, §8

[6] = Homo sapiens, 24 h, A673 or K562 cells, 24 hours compound treatment, RT-qPCR
[7] = Homo sapiens, 24 h, A673 or K562 cells, 24 hours compound treatment, RT-qPCR, read-out: MYB CJ (IC50, decrease in canonical junction mRNA)
[8] = Homo sapiens, Tables 4A/4B, canonical junction qPCR panel, read-out: MYB (IC50, decrease in CJ mRNA, gene panel)

| SMILES | IC50 [1, 7] | IC50 [1, 8] | IC50 ([2]; Homo sapiens) | IC50 ([3]; Homo sapiens) | IC50 [4] | IC50 ([5]; Homo sapiens) | IC50 ([1]; Tables 4A/4B, canonical junction qPCR panel, read-out: MYB (IC50, decrease in CJ mRNA, gene panel)) | IC50 [2] | IC50 [3] | IC50 [5] | AC50 [1, 6] | AC50 [4] |
| --- | --- | --- | --- | --- | --- | --- | --- | --- | --- | --- | --- | --- |
| Cc1cn2cc(NC(=O)c3ccc(N4C[C@H]5CC[C@@H](C4)N5)c4cn(C)nc34)cc(Cl)c2n1 [Compound 279] |  | < 100 nM | 1000 to 10000 nM | 1000 to 10000 nM |  | < 100 nM |  |  |  |  |  |  |
| Cc1cn2cc(NC(=O)c3ccc(N4CCNCC4)c4cn(C)nc34)cc(Cl)c2n1 [Compound 285] |  |  |  |  |  |  | < 100 nM | 100 to 1000 nM | 100 to 1000 nM | < 100 nM |  |  |
| Cc1cn2cc(N(C)C(=O)c3ccc(N4CCNCC4)c4cn(C)nc34)cc(F)c2n1 [Compound 386, N-{8-fluoro-2-methylimidazo[1,2-a]pyridin-6-yl}-N,2-dimethyl-4-(piperazin-1-yl) indazole-7-carboxamide] |  | > 10000 nM | > 10000 nM | > 10000 nM |  | > 10000 nM |  |  |  |  |  |  |
| Cc1cn2cc(NC(=O)c3ccc(N4CCC5(CC4)CCN5C)c4cn(C)nc34)cc(F)c2n1 [Compound 422, N-{8-fluoro-2-methylimidazo[1,2-a]pyridin-6-yl}-2-methyl-4-{1-methyl-1,7-diazaspiro[3.5]nonan-7-yl}indazole-7-carboxamide; bis(trifluoroacetic acid)] |  | < 100 nM | 100 to 1000 nM | < 100 nM |  | < 100 nM |  |  |  |  |  |  |
| CCOc1nc(NC(=O)c2ccc(N3CC[C@@H](NC)C3)c3cn(C)nc23)cn2cc(C)nc12 [Compound 433] |  | 100 to 1000 nM | 1000 to 10000 nM | 1000 to 10000 nM |  | < 100 nM |  |  |  |  |  |  |
| C=C(C)n1cc2c(N3CCNCC3)ccc(C(=O)Nc3cc(F)c4nc(C)cn4c3)c2n1 [Compound 440, N-{8-fluoro-2-methylimidazo[1,2-a]pyridin-6-yl}-4-(piperazin-1-yl)-2-(prop-1-en-2-yl) indazole-7-carboxamide] |  | < 100 nM | 1000 to 10000 nM | < 100 nM |  | < 100 nM |  |  |  |  |  |  |
| C/C=C/n1cc2c(N3CCNCC3)ccc(C(=O)Nc3cc(F)c4nc(C)cn4c3)c2n1 [Compound 445, N-{8-fluoro-2-methylimidazo[1,2-a]pyridin-6-yl}-4-(piperazin-1-yl)-2-[(1E)-prop-1-en-1-yl]indazole-7-carboxamide] |  | < 100 nM | 100 to 1000 nM | < 100 nM |  | < 100 nM |  |  |  |  |  |  |
| CCNC1CCN(c2cc(F)c(C(=O)Nc3cn4cc(C)nc4c(F)c3OC)c3nn(C)cc23)CC1 [Compound 471] |  | < 100 nM | < 100 nM | < 100 nM |  | < 100 nM |  |  |  |  |  |  |

Second part, led by results:

| IC50 [1, 7] | IC50 [1, 8] | IC50 ([2]; Homo sapiens) | IC50 ([3]; Homo sapiens) | IC50 [4] | IC50 ([5]; Homo sapiens) | IC50 ([1]; Tables 4A/4B, canonical junction qPCR panel, read-out: MYB (IC50, decrease in CJ mRNA, gene panel)) | IC50 [2] | IC50 [3] | IC50 [5] | SMILES | AC50 [1, 6] | AC50 [4] |
| --- | --- | --- | --- | --- | --- | --- | --- | --- | --- | --- | --- | --- |
| < 100 nM | < 100 nM | > 10000 nM | 1000 to 10000 nM | 1000 to 10000 nM | < 100 nM |  |  |  |  | Cc1cn2cc(NC(=O)c3ccc(N4CC[C@@H](N(C)C)C4)c4cn(C)nc34)cc(F)c2n1 (single isomer, unassigned) [Compound 350, 4-[3-(dimethylamino)pyrrolidin-1-yl]-N-{8-fluoro-2-methylimidazo[1,2-a]pyridin-6-yl}-2-methylindazole-7-carboxamide] | < 100 nM | 1000 to 10000 nM |
| < 100 nM | < 100 nM | > 10000 nM | 1000 to 10000 nM | 1000 to 10000 nM | < 100 nM |  |  |  |  | Cc1cn2cc(NC(=O)c3ccc(N4CC[C@H](N(C)C)C4)c4cn(C)nc34)cc(F)c2n1 (single isomer, unassigned) [Compound 351, 4-[3-(dimethylamino)pyrrolidin-1-yl]-N-{8-fluoro-2-methylimidazo[1,2-a]pyridin-6-yl}-2-methylindazole-7-carboxamide] | < 100 nM | 1000 to 10000 nM |
| < 100 nM | < 100 nM | 1000 to 10000 nM | 100 to 1000 nM | 100 to 1000 nM | < 100 nM |  |  |  |  | Cc1cn2cc(NC(=O)c3ccc(N4CCN[C@@H](C)C4)c4cn(C)nc34)cc(F)c2n1 (single isomer, unassigned) [Compound 352] | < 100 nM | 100 to 1000 nM |
| < 100 nM | < 100 nM | 1000 to 10000 nM | 100 to 1000 nM | 100 to 1000 nM | < 100 nM |  |  |  |  | Cc1cn2cc(NC(=O)c3ccc(N4CCN[C@H](C)C4)c4cn(C)nc34)cc(F)c2n1 (single isomer, unassigned) [Compound 353] | < 100 nM | 100 to 1000 nM |
|  | < 100 nM | 100 to 1000 nM | 100 to 1000 nM |  | < 100 nM |  |  |  |  | CCNC1CCN(c2ccc(C(=O)Nc3cc(F)c4nc(C)cn4c3)c3nn(C)cc23)CC1 [Compound 252] |  |  |
|  | < 100 nM | 1000 to 10000 nM | 100 to 1000 nM |  | < 100 nM |  |  |  |  | Cc1cn2cc(NC(=O)c3ccc(N4CCNC(C)C4)c4cn(C)nc34)cc(Cl)c2n1 (stereo not shown) [Compound 277] |  |  |
|  | < 100 nM | 1000 to 10000 nM | 1000 to 10000 nM |  | < 100 nM |  |  |  |  | CCn1cc2c(N3CCNCC3)ccc(C(=O)Nc3cc(Cl)c4nc(C)cn4c3)c2n1 [Compound 284] |  |  |
|  | < 100 nM | 1000 to 10000 nM | 1000 to 10000 nM |  | < 100 nM |  |  |  |  | CCn1cc2c(N3CCNCC3)ccc(C(=O)Nc3cc(F)c4nc(C)cn4c3)c2n1 [Compound 288, 2-ethyl-N-{8-fluoro-2-methylimidazo[1,2-a]pyridin-6-yl}-4-(piperazin-1-yl)indazole-7-carboxamide] |  |  |
|  | < 100 nM | < 100 nM | < 100 nM |  | < 100 nM |  |  |  |  | Cc1cn2cc(NC(=O)c3c(F)cc(N4CCNCC4)c4cn(C)nc34)cc(F)c2n1 [Compound 361, 6-fluoro-N-{8-fluoro-2-methylimidazo[1,2-a]pyridin-6-yl}-2-methyl-4-(piperazin-1-yl) indazole-7-carboxamide] |  |  |
|  | < 100 nM | < 100 nM | < 100 nM |  | < 100 nM |  |  |  |  | C=Cn1cc2c(N3CCNCC3)ccc(C(=O)Nc3cc(F)c4nc(C)cn4c3)c2n1 [Compound 363, 2-ethenyl-N-{8-fluoro-2-methylimidazo[1,2-a]pyridin-6-yl}-4-(piperazin-1-yl) indazole-7-carboxamide] |  |  |
